{
  "source": "patent US11203601B2",
  "about": "“Tricyclic compounds as glycogen synthase kinase 3 (GSK3) inhibitors and uses thereof” (The Broad Institute, Inc., priority 2017, dated 2021)",
  "test_in_all_cases": "Carna kinome panel",
  "assay_type_in_all_cases": "biochemical",
  "key": {"[1]": {"target": "FMS (Homo sapiens (Human), UniProt P07333)", "settings": "read-out: % Inhibition at 10 μM of the test compound"}, "[2]": {"target": "EPHA8 (Homo sapiens (Human), UniProt P29322)", "settings": "read-out: % Inhibition at 10 μM of the test compound"}, "[3]": {"target": "AKT3 (Homo sapiens (Human), UniProt Q9Y243)", "settings": "read-out: % Inhibition at 10 μM of the test compound"}, "[4]": {"target": "NDR1 (Homo sapiens (Human), UniProt Q15208)", "settings": "read-out: % Inhibition at 10 μM of the test compound"}, "[5]": {"target": "GSK3β (Homo sapiens (Human), UniProt P49841)", "sequence (P49841 whole entry)": "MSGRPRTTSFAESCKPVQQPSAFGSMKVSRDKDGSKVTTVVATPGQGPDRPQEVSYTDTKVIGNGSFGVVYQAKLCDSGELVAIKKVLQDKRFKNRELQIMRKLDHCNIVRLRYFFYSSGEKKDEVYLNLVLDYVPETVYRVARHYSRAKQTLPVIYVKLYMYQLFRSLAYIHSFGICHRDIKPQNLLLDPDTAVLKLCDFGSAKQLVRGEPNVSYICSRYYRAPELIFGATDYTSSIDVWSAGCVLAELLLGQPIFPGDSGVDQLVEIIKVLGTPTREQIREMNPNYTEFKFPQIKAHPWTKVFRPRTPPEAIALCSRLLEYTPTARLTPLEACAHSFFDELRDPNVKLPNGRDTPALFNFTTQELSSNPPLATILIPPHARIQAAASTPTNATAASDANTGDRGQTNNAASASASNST", "method": "A selection of compounds was screened against a selected panel of kinases based on single point inhibitory ability to determine absolute inhibitory activity, leading to selectivity measurements. The assay utilized was identical to that of the single point inhibitory activity determination (MSA) but run in dose response. A solution of 4× inhibitor (5 μL), 4× substrate/ATP Metal solution (5 μL), and 2× Kinase solution (10 μL) was prepared with assay buffer (20 mM HEPES, 0.01% Triton X-100, 2 mM DTT, pH 7.5) and mixed/incubated in 384 well plates for 1 or 5 hours depending on the kinase, at room temperature. A solution of termination buffer (QuickScout Screening assist MSA; Carna Biosciences) (60 μL) was added to each well. The entire reaction mixture was then applied to a LabChip3000 system (Caliper Life Science) and the product and substrate peptide peaks were separated and quantified.\nBriefly, a selection of compounds was screened against a panel of kinases at a single concentration of 10 μM. […] The entire reaction mixture was then applied to a LabChip3000 system (Caliper Life Science), and the product and substrate peptide peaks were separated and quantified. […] The entire reaction mixture was then applied to a LabChip3000 system (Caliper Life Science), and the product and substrate peptide peaks were separated and quantified."}, "[6]": {"target": "MARK3 (Homo sapiens (Human), UniProt P27448)", "settings": "read-out: % Inhibition at 10 μM of the test compound"}, "[7]": {"target": "KIT(T670I) (Homo sapiens (Human), UniProt P10721, T670I)", "sequence (P10721 26-976 T670I)": "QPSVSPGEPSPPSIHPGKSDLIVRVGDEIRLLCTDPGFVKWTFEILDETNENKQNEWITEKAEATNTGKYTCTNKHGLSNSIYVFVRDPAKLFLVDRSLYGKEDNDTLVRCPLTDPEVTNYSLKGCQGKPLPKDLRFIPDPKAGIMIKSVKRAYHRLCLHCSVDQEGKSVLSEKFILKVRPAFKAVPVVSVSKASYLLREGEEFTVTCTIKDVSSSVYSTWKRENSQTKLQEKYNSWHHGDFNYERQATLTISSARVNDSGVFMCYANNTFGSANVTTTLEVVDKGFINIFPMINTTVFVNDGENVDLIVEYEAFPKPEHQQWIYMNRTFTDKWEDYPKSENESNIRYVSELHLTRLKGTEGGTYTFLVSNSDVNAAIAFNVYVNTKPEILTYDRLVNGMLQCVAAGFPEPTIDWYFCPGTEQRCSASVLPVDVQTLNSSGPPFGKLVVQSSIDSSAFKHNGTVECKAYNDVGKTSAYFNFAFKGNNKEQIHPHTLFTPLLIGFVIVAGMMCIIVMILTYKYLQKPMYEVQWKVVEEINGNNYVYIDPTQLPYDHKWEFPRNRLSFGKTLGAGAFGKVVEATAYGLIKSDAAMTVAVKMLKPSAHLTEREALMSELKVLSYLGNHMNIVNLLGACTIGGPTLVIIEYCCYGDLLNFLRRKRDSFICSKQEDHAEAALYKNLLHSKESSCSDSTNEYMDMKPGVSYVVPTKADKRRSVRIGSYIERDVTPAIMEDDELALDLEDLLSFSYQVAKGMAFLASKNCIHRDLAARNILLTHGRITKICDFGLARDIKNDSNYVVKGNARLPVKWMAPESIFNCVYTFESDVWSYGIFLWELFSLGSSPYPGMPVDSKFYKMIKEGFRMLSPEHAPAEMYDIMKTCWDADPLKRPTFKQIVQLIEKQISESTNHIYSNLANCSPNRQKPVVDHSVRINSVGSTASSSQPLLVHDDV", "settings": "read-out: % Inhibition at 10 μM of the test compound"}, "[8]": {"target": "SRPK2 (Homo sapiens (Human), UniProt P78362)", "settings": "read-out: % Inhibition at 10 μM of the test compound"}, "[9]": {"target": "KDR (Homo sapiens (Human), UniProt P35968)", "settings": "read-out: % Inhibition at 10 μM of the test compound"}, "[10]": {"target": "EML4-ALK (Homo sapiens (Human), UniProt Q9UM73)", "settings": "read-out: % Inhibition at 10 μM of the test compound"}, "[11]": {"target": "MAP4K2 (Homo sapiens (Human), UniProt Q12851)", "sequence (Q12851 whole entry, species assumed)": "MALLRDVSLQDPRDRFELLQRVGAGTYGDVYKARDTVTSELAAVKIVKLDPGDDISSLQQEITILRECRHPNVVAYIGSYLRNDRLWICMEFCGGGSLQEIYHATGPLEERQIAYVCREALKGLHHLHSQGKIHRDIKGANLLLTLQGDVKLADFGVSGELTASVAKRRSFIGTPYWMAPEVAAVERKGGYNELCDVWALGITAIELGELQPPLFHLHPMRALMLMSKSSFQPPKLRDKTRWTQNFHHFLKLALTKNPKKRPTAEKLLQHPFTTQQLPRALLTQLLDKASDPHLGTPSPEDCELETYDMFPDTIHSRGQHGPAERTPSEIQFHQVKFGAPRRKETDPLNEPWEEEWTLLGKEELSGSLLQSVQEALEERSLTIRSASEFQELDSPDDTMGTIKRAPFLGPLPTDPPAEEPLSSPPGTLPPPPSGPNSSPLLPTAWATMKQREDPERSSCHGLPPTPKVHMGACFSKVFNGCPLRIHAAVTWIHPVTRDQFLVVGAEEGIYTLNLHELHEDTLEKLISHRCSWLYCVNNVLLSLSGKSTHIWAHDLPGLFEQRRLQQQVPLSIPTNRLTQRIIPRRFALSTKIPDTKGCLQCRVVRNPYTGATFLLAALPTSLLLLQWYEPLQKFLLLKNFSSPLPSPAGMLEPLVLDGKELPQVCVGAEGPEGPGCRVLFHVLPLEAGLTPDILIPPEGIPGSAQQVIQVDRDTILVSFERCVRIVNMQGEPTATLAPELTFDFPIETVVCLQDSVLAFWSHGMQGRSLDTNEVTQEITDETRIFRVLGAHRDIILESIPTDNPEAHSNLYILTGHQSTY", "settings": "read-out: % Inhibition at 10 μM of the test compound"}, "[12]": {"target": "IKKβ (Homo sapiens (Human), UniProt O14920)", "settings": "read-out: % Inhibition at 10 μM of the test compound"}, "[13]": {"target": "DYRK2 (Homo sapiens (Human), UniProt Q92630)", "settings": "read-out: % Inhibition at 10 μM of the test compound"}, "[14]": {"target": "YES (Homo sapiens (Human), UniProt P07947)", "sequence (P07947 whole entry)": "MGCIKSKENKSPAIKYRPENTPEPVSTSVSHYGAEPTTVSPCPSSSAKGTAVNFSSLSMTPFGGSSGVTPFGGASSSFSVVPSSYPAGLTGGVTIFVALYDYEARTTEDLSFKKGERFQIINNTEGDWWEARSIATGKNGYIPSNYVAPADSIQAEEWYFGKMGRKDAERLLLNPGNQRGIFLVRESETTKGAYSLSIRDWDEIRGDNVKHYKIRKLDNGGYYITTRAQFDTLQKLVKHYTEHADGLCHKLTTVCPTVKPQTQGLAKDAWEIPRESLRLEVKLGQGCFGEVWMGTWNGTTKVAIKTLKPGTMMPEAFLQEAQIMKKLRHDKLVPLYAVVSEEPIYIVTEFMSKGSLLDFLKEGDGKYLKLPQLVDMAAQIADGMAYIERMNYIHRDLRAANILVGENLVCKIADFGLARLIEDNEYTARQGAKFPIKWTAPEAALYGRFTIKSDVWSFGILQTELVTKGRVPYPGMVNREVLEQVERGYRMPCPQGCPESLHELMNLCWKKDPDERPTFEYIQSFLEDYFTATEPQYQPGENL", "settings": "read-out: % Inhibition at 10 μM of the test compound"}, "[15]": {"target": "CDK6/CycD3 (Homo sapiens (Human), UniProt Q00534)", "sequence (Q00534 whole entry, looked up)": "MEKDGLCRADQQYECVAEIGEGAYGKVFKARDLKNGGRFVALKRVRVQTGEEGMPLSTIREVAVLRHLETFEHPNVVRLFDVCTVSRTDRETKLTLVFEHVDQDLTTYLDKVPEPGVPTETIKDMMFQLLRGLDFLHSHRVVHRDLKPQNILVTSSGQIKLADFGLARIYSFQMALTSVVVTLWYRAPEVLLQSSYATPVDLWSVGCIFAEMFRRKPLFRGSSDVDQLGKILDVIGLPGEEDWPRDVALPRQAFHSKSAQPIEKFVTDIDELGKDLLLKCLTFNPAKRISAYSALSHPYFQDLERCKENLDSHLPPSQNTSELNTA", "sequence (P30281 whole entry partner, looked up)": "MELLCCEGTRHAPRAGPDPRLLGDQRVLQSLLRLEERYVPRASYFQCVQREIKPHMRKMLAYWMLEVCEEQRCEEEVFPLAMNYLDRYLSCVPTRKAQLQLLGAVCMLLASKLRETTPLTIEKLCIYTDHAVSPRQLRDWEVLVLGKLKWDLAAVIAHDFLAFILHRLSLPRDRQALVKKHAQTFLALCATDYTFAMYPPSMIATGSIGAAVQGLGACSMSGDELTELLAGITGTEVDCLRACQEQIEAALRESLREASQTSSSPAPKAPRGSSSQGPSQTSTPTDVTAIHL", "settings": "read-out: % Inhibition at 10 μM of the test compound"}, "[16]": {"target": "MAP3K4_Cascade (Homo sapiens (Human), UniProt Q9Y6R4)", "settings": "read-out: % Inhibition at 10 μM of the test compound"}, "[17]": {"target": "ACK (Homo sapiens (Human), UniProt Q07912)", "settings": "read-out: % Inhibition at 10 μM of the test compound"}, "[18]": {"target": "Erk1 (Homo sapiens (Human), UniProt P27361)", "settings": "read-out: % Inhibition at 10 μM of the test compound"}, "[19]": {"target": "EPHB1 (Homo sapiens (Human), UniProt P54762)", "settings": "read-out: % Inhibition at 10 μM of the test compound"}, "[20]": {"target": "HER2 (Homo sapiens (Human), UniProt P04626)", "settings": "read-out: % Inhibition at 10 μM of the test compound"}, "[21]": {"target": "PKD3 (Homo sapiens (Human), UniProt O94806)", "sequence (O94806 whole entry, looked up)": "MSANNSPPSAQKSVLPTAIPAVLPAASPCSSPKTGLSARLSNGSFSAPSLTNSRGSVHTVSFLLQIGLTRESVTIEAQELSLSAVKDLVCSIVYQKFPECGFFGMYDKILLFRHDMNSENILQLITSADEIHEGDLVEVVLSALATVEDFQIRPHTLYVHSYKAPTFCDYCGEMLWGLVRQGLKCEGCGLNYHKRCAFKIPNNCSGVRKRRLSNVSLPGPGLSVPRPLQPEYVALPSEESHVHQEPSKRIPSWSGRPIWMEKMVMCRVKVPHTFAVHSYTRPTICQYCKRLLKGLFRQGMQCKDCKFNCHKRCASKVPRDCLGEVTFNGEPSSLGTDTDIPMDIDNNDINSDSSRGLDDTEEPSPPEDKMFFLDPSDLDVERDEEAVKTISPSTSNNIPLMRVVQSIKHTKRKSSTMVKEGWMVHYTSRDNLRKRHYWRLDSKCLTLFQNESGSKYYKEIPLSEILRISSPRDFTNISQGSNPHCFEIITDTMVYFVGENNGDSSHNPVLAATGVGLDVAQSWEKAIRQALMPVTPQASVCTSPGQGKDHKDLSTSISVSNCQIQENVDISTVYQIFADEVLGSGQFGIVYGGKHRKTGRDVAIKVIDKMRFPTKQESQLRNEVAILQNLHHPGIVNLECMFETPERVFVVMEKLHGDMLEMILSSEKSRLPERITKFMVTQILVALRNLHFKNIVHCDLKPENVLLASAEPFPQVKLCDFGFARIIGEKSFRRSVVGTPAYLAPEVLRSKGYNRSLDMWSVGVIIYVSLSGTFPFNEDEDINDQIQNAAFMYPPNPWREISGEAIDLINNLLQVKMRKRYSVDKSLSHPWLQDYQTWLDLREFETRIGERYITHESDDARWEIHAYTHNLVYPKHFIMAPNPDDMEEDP", "settings": "read-out: % Inhibition at 10 μM of the test compound"}, "[22]": {"target": "ALK(L1196M) (Homo sapiens (Human), UniProt Q9UM73, L1196M)", "settings": "read-out: % Inhibition at 10 μM of the test compound"}, "[23]": {"target": "CHK2 (Homo sapiens (Human), UniProt O96017)", "settings": "read-out: % Inhibition at 10 μM of the test compound"}, "[24]": {"target": "PBK (Homo sapiens (Human), UniProt Q96KB5)", "settings": "read-out: % Inhibition at 10 μM of the test compound"}, "[25]": {"target": "MARK4 (Homo sapiens (Human), UniProt Q96L34)", "sequence (Q96L34 whole entry)": "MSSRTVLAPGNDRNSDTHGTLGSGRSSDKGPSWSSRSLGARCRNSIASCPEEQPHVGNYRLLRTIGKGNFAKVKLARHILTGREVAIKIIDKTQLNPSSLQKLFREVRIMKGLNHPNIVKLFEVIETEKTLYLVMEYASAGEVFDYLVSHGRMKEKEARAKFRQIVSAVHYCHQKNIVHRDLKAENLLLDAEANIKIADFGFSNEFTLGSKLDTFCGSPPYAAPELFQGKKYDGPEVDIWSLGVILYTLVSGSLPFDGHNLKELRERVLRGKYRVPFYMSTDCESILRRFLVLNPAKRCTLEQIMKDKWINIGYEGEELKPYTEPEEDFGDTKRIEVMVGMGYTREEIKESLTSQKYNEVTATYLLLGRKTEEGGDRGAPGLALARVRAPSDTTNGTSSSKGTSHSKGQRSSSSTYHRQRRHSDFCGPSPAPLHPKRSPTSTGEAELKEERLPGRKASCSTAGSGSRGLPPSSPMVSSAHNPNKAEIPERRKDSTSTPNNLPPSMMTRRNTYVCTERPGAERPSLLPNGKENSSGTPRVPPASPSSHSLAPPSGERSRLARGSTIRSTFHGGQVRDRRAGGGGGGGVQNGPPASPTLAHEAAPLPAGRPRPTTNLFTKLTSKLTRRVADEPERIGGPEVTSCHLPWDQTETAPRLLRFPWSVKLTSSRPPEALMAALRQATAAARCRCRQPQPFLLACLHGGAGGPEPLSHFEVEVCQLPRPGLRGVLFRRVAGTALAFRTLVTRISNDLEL", "settings": "read-out: % Inhibition at 10 μM of the test compound"}, "[26]": {"target": "TAOK2 (Homo sapiens (Human), UniProt Q9UL54)", "settings": "read-out: % Inhibition at 10 μM of the test compound"}, "[27]": {"target": "CK1ε (Homo sapiens (Human), UniProt P49674)", "settings": "read-out: % Inhibition at 10 μM of the test compound"}, "[28]": {"target": "SRM (Homo sapiens (Human), UniProt Q9H3Y6)", "settings": "read-out: % Inhibition at 10 μM of the test compound"}, "[29]": {"tested_on": "MAP3K1_Cascade", "method": "Briefly, a selection of compounds was screened against a panel of kinases at a single concentration of 10 μM. […] This was completed using one of two assays, depending on the kinase being examined: 1) IMAP Assay. A solution of 4× inhibitor, 4× substrate/ATP/metal solution and 2× kinase solution was prepared with assay buffer (20 mM HEPES, 0.01% Tween-20, 2 mM DTT, pH 7.4) and mixed, then incubated in 384-well black plates for 1 hour at room temperature. The IMAP binding reagent (IMAP Screening Express kit; Molecular Devices) was added to each well and incubated for 30 minutes. […] 2) Off-Chip Mobility Shift Assay (MSA). A solution of 4× inhibitor, 4× substrate/ATP/metal solution and 2× kinase solution was prepared with assay buffer (20 mM HEPES, 0.01% Triton X-100, 2 mM DTT, pH 7.5) and mixed, then incubated in 384-well plates for 1 or 5 hours depending on the kinase, at room temperature. Termination buffer (QuickScout Screening assist MSA; Carna Biosciences) was added to each well. The entire reaction mixture was then applied to a LabChip3000 system (Caliper Life Science), and the product and substrate peptide peaks were separated and quantified. […] The entire reaction mixture was then applied to a LabChip3000 system (Caliper Life Science), and the product and substrate peptide peaks were separated and quantified."}, "[30]": {"target": "FYN(isoform b) (Homo sapiens (Human), UniProt P06241)", "settings": "read-out: % Inhibition at 10 μM of the test compound"}, "[31]": {"target": "PIM1 (Homo sapiens (Human), UniProt P11309)", "settings": "read-out: % Inhibition at 10 μM of the test compound"}, "[32]": {"target": "HIPK2 (Homo sapiens (Human), UniProt Q9H2X6)", "settings": "read-out: % Inhibition at 10 μM of the test compound"}},
  "data": [
    {"compound": "CCC1(c2ccccc2)C2=C(CC(C)(C)CC2=O)Nc2ncsc21", "note": "(stereo not drawn) [Compound 1, 9-Ethyl-6,6-dimethyl-9-phenyl-5,6,7,9-tetrahydrothiazolo[4,5-b]quinolin-8(4H)-one]", "values": [
      {"measurement": "inhibition at 10 µM", "setting": "[1]", "result": 0.3, "unit": "%"},
      {"measurement": "inhibition at 10 µM", "setting": "[2]", "result": 3, "unit": "%"},
      {"measurement": "inhibition at 10 µM", "setting": "[3]", "result": -4.5, "unit": "%"},
      {"measurement": "inhibition at 10 µM", "setting": "[4]", "result": 0.2, "unit": "%"},
      {"measurement": "IC50", "setting": "[5]; GSK3β", "result": 137, "unit": "nM"},
      {"measurement": "inhibition at 10 µM", "setting": "[5]; read-out: % Inhibition at 10 μM of the test compound", "result": 97.7, "unit": "%"},
      {"measurement": "inhibition at 10 µM", "setting": "[6]", "result": -3.3, "unit": "%"},
      {"measurement": "inhibition at 10 µM", "setting": "[7]", "result": -4.2, "unit": "%"},
      {"measurement": "inhibition at 10 µM", "setting": "[8]", "result": 3.1, "unit": "%"},
      {"measurement": "inhibition at 10 µM", "setting": "[9]", "result": 0.2, "unit": "%"},
      {"measurement": "inhibition at 10 µM", "setting": "[10]", "result": 2.9, "unit": "%"},
      {"measurement": "inhibition at 10 µM", "setting": "[11]", "result": 1.1, "unit": "%"},
      {"measurement": "inhibition at 10 µM", "setting": "[12]", "result": 2.3, "unit": "%"},
      {"measurement": "inhibition at 10 µM", "setting": "[13]", "result": 4, "unit": "%"},
      {"measurement": "inhibition at 10 µM", "setting": "[14]", "result": 3.3, "unit": "%"},
      {"measurement": "inhibition at 10 µM", "setting": "[15]", "result": 5.5, "unit": "%"},
      {"measurement": "inhibition at 10 µM", "setting": "[16]", "result": 10.1, "unit": "%"},
      {"measurement": "inhibition at 10 µM", "setting": "[17]", "result": -4.1, "unit": "%"},
      {"measurement": "inhibition at 10 µM", "setting": "[18]", "result": 5.6, "unit": "%"},
      {"measurement": "inhibition at 10 µM", "setting": "[19]", "result": -0.4, "unit": "%"},
      {"measurement": "inhibition at 10 µM", "setting": "[20]", "result": -1, "unit": "%"},
      {"measurement": "inhibition at 10 µM", "setting": "[21]", "result": 2.7, "unit": "%"},
      {"measurement": "inhibition at 10 µM", "setting": "[22]", "result": -5.2, "unit": "%"},
      {"measurement": "inhibition at 10 µM", "setting": "[23]", "result": 3.3, "unit": "%"},
      {"measurement": "inhibition at 10 µM", "setting": "[24]", "result": 0.8, "unit": "%"},
      {"measurement": "inhibition at 10 µM", "setting": "[25]", "result": -15.7, "unit": "%"},
      {"measurement": "inhibition at 10 µM", "setting": "[26]", "result": -5.9, "unit": "%"},
      {"measurement": "inhibition at 10 µM", "setting": "[27]", "result": 3.1, "unit": "%"},
      {"measurement": "inhibition at 10 µM", "setting": "[28]", "result": -15.1, "unit": "%"},
      {"measurement": "% Inhibition at 10 μM of the test compound", "setting": "[29]", "result": "−1.0", "unit": "%"},
      {"measurement": "inhibition at 10 µM", "setting": "[30]", "result": 2.4, "unit": "%"},
      {"measurement": "inhibition at 10 µM", "setting": "[31]", "result": 0, "unit": "%"},
      {"measurement": "inhibition at 10 µM", "setting": "[32]", "result": -2.5, "unit": "%"}
    ]}
  ]
}
